According to ChEMBL document CHEMBL1671673, “In vitro activity of colistin (polymyxin E) against 3,480 isolates of gram-negative bacilli obtained from patients in Canadian hospitals in the CANWARD study, 2007-2008” (Antimicrob Agents Chemother, 2009):

Key:
Assay type in all cases: functional, organism-based
Pseudomonas aeruginosa [1] = test: Antibacterial activity against Gentamicin-resistant Pseudomonas aeruginosa assessed as susceptible isolates at minimum inhibitory concentration of 8 ug/ml by CLSI broth microdilution method; design: scale not given: the % may be the effect or the level left
Pseudomonas aeruginosa [2] = test: Antibacterial activity against Gentamicin-resistant Pseudomonas aeruginosa assessed as susceptible isolates at minimum inhibitory concentration of >16 ug/ml by CLSI broth microdilution method; design: scale not given: the % may be the effect or the level left
Pseudomonas aeruginosa [3] = test: Antibacterial activity against Levofloxacin-resistant Pseudomonas aeruginosa assessed as susceptible isolates at minimum inhibitory concentration of 4 ug/ml by CLSI broth microdilution method; design: scale not given: the % may be the effect or the level left
Pseudomonas aeruginosa [4] = test: Antibacterial activity against Levofloxacin-resistant Pseudomonas aeruginosa assessed as susceptible isolates at minimum inhibitory concentration of 16 ug/ml by CLSI broth microdilution method; design: scale not given: the % may be the effect or the level left
Pseudomonas aeruginosa [5] = test: Antibacterial activity against Piperacillin-resistant Pseudomonas aeruginosa assessed as susceptible isolates at minimum inhibitory concentration of 0.5 ug/ml by CLSI broth microdilution method; design: scale not given: the % may be the effect or the level left
Pseudomonas aeruginosa [6] = test: Antibacterial activity against Piperacillin-resistant Pseudomonas aeruginosa assessed as susceptible isolates at minimum inhibitory concentration of 2 ug/ml by CLSI broth microdilution method; design: scale not given: the % may be the effect or the level left
Pseudomonas aeruginosa [7] = test: Antibacterial activity against Piperacillin-resistant Pseudomonas aeruginosa assessed as susceptible isolates at minimum inhibitory concentration of 4 ug/ml by CLSI broth microdilution method; design: scale not given: the % may be the effect or the level left
Pseudomonas aeruginosa [8] = test: Antibacterial activity against MDR3 Pseudomonas aeruginosa assessed as susceptible isolates at minimum inhibitory concentration of 0.5 ug/ml by CLSI broth microdilution method; design: scale not given: the % may be the effect or the level left
Pseudomonas aeruginosa [9] = test: Antibacterial activity against MDR4 Pseudomonas aeruginosa assessed as susceptible isolates at minimum inhibitory concentration of 1 ug/ml by CLSI broth microdilution method; design: scale not given: the % may be the effect or the level left
Pseudomonas aeruginosa [10] = test: Antibacterial activity against Pseudomonas aeruginosa assessed as resistant isolates at >=8 ug/ml by CLSI broth microdilution method
Pseudomonas aeruginosa [11] = test: Antibacterial activity against tazobactam-resistant Pseudomonas aeruginosa assessed as susceptible isolates at minimum inhibitory concentration of 1 ug/ml by CLSI broth microdilution method; design: scale not given: the % may be the effect or the level left
Pseudomonas aeruginosa [12] = test: Antibacterial activity against tazobactam-resistant Pseudomonas aeruginosa assessed as susceptible isolates at minimum inhibitory concentration of 2 ug/ml by CLSI broth microdilution method; design: scale not given: the % may be the effect or the level left
Serratia marcescens [13] = test: Antibacterial activity against Serratia marcescens assessed as susceptible isolates at minimum inhibitory concentration of 0.5 ug/ml by CLSI broth microdilution method; design: scale not given: the % may be the effect or the level left
Serratia marcescens [14] = test: Antibacterial activity against Serratia marcescens assessed as susceptible isolates at minimum inhibitory concentration of 0.25 ug/ml by CLSI broth microdilution method; design: scale not given: the % may be the effect or the level left
Serratia marcescens [15] = test: Antibacterial activity against Serratia marcescens assessed as susceptible isolates at minimum inhibitory concentration of <=0.06 ug/ml by CLSI broth microdilution method; design: scale not given: the % may be the effect or the level left
Proteus mirabilis [16] = test: Antibacterial activity against Proteus mirabilis assessed as susceptible isolates at minimum inhibitory concentration of 16 ug/ml by CLSI broth microdilution method; design: scale not given: the % may be the effect or the level left
Proteus mirabilis [17] = test: Antibacterial activity against Proteus mirabilis assessed as susceptible isolates at minimum inhibitory concentration of 8 ug/ml by CLSI broth microdilution method; design: scale not given: the % may be the effect or the level left
Enterobacter cloacae = test: Antibacterial activity against Enterobacter cloacae assessed as susceptible isolates at minimum inhibitory concentration of 4 ug/ml by CLSI broth microdilution method; design: scale not given: the % may be the effect or the level left
Klebsiella pneumoniae [18] = test: Antibacterial activity against ESBL-producing Klebsiella pneumoniae assessed as susceptible isolates at minimum inhibitory concentration of >16 ug/ml by CLSI broth microdilution method; design: scale not given: the % may be the effect or the level left
Klebsiella pneumoniae [19] = test: Antibacterial activity against ESBL-producing Klebsiella pneumoniae assessed as susceptible isolates at minimum inhibitory concentration of <=0.06 ug/ml by CLSI broth microdilution method; design: scale not given: the % may be the effect or the level left
Pseudomonas aeruginosa [20] = test: Antibacterial activity against Pseudomonas aeruginosa assessed as susceptible isolates at minimum inhibitory concentration of 16 ug/ml by CLSI broth microdilution method; design: scale not given: the % may be the effect or the level left
Pseudomonas aeruginosa [21] = test: Antibacterial activity against Pseudomonas aeruginosa assessed as susceptible isolates at minimum inhibitory concentration of 8 ug/ml by CLSI broth microdilution method; design: scale not given: the % may be the effect or the level left
Pseudomonas aeruginosa [22] = test: Antibacterial activity against Pseudomonas aeruginosa assessed as susceptible isolates at minimum inhibitory concentration of 4 ug/ml by CLSI broth microdilution method; design: scale not given: the % may be the effect or the level left
Pseudomonas aeruginosa [23] = test: Antibacterial activity against Pseudomonas aeruginosa assessed as susceptible isolates at minimum inhibitory concentration of 2 ug/ml by CLSI broth microdilution method; design: scale not given: the % may be the effect or the level left
Pseudomonas aeruginosa [24] = test: Antibacterial activity against Pseudomonas aeruginosa assessed as susceptible isolates at minimum inhibitory concentration of 0.25 ug/ml by CLSI broth microdilution method; design: scale not given: the % may be the effect or the level left
Escherichia coli [25] = test: Antibacterial activity against ESBL-producing Escherichia coli assessed as susceptible isolates at minimum inhibitory concentration of 1 ug/ml by CLSI broth microdilution method; design: scale not given: the % may be the effect or the level left
Escherichia coli [26] = test: Antibacterial activity against ESBL-producing Escherichia coli assessed as susceptible isolates at minimum inhibitory concentration of <=0.06 ug/ml by CLSI broth microdilution method; design: scale not given: the % may be the effect or the level left
Klebsiella oxytoca = test: Antibacterial activity against Klebsiella oxytoca assessed as susceptible isolates at minimum inhibitory concentration of >16 ug/ml by CLSI broth microdilution method; design: scale not given: the % may be the effect or the level left
[27] = tested on: Stenotrophomonas maltophilia; test: Antibacterial activity against Stenotrophomonas maltophilia assessed as susceptible isolates at minimum inhibitory concentration of 0.25 ug/ml by CLSI broth microdilution method; design: scale not given: the % may be the effect or the level left
[28] = tested on: Stenotrophomonas maltophilia; test: Antibacterial activity against Stenotrophomonas maltophilia assessed as susceptible isolates at minimum inhibitory concentration of 1 ug/ml by CLSI broth microdilution method; design: scale not given: the % may be the effect or the level left
Klebsiella aerogenes = test: Antibacterial activity against Enterobacter aerogenes assessed as susceptible isolates at minimum inhibitory concentration of 2 ug/ml by CLSI broth microdilution method; design: scale not given: the % may be the effect or the level left
Acinetobacter baumannii [29] = test: Antibacterial activity against Acinetobacter baumannii assessed as susceptible isolates at minimum inhibitory concentration of 0.12 ug/ml by CLSI broth microdilution method; design: scale not given: the % may be the effect or the level left
Acinetobacter baumannii [30] = test: Antibacterial activity against Acinetobacter baumannii assessed as susceptible isolates at minimum inhibitory concentration of >16 ug/ml by CLSI broth microdilution method; design: scale not given: the % may be the effect or the level left
Pseudomonas aeruginosa [31] = test: Antibacterial activity against Amikacin-resistant Pseudomonas aeruginosa assessed as susceptible isolates at minimum inhibitory concentration of 16 ug/ml by CLSI broth microdilution method; design: scale not given: the % may be the effect or the level left
Pseudomonas aeruginosa [32] = test: Antibacterial activity against Cefepime-resistant Pseudomonas aeruginosa assessed as susceptible isolates at minimum inhibitory concentration of 1 ug/ml by CLSI broth microdilution method; design: scale not given: the % may be the effect or the level left
Pseudomonas aeruginosa [33] = test: Antibacterial activity against Ciprofloxacin-resistant Pseudomonas aeruginosa assessed as susceptible isolates at minimum inhibitory concentration of 2 ug/ml by CLSI broth microdilution method; design: scale not given: the % may be the effect or the level left
Pseudomonas aeruginosa [34] = test: Antibacterial activity against Ciprofloxacin-resistant Pseudomonas aeruginosa assessed as susceptible isolates at minimum inhibitory concentration of 4 ug/ml by CLSI broth microdilution method; design: scale not given: the % may be the effect or the level left
Pseudomonas aeruginosa [35] = test: Antibacterial activity against Gentamicin-resistant Pseudomonas aeruginosa assessed as susceptible isolates at minimum inhibitory concentration of 1 ug/ml by CLSI broth microdilution method; design: scale not given: the % may be the effect or the level left
Pseudomonas aeruginosa [36] = test: Antibacterial activity against Gentamicin-resistant Pseudomonas aeruginosa assessed as susceptible isolates at minimum inhibitory concentration of 4 ug/ml by CLSI broth microdilution method; design: scale not given: the % may be the effect or the level left
Serratia marcescens [37] = test: Antibacterial activity against Serratia marcescens assessed as susceptible isolates at minimum inhibitory concentration of 8 ug/ml by CLSI broth microdilution method; design: scale not given: the % may be the effect or the level left

COLISTIN gave an Activity (Pseudomonas aeruginosa [1]) of 99%, an Activity (Pseudomonas aeruginosa [2]) of 100% and an Activity (Pseudomonas aeruginosa [3]) of 98.2%. It also gave an Activity (Pseudomonas aeruginosa [4]) of 98.2%, an Activity (Pseudomonas aeruginosa [5]) of 1.8% and an Activity (Pseudomonas aeruginosa [6]) of 92.9%. The Activity (Pseudomonas aeruginosa [7]) was 100%, the Activity (Pseudomonas aeruginosa [8]) was 4% and the Activity (Pseudomonas aeruginosa [9]) was 42.3%. For the same sequence, the Activity (Pseudomonas aeruginosa [10]) was 1.1%, the Activity (Pseudomonas aeruginosa [11]) was 37.5% and the Activity (Pseudomonas aeruginosa [12]) was 92.9%. For the same sequence, the Activity (Serratia marcescens [13]) was 0%, the Activity (Serratia marcescens [14]) was 0% and the Activity (Serratia marcescens [15]) was 0%. The Activity (Proteus mirabilis [16]) was 0.8%, the Activity (Proteus mirabilis [17]) was 0% and the Activity (Enterobacter cloacae) was 84.9%. It also gave an Activity (Klebsiella pneumoniae [18]) of 100%, an Activity (Klebsiella pneumoniae [19]) of 0% and an Activity (Pseudomonas aeruginosa [20]) of 99.1%. It also gave an Activity (Pseudomonas aeruginosa [21]) of 99.1%, an Activity (Pseudomonas aeruginosa [22]) of 98.9% and an Activity (Pseudomonas aeruginosa [23]) of 91.6%. It also gave an Activity (Pseudomonas aeruginosa [24]) of 0%, an Activity (Escherichia coli [25]) of 97.3% and an Activity (Escherichia coli [26]) of 0.1%. The Activity (Klebsiella oxytoca) was 100%, the Activity [27] was 1.2% and the Activity [28] was 10.8%. For the same sequence, the Activity (Klebsiella aerogenes) was 97.3%, the Activity (Acinetobacter baumannii [29]) was 0% and the Activity (Acinetobacter baumannii [30]) was 100%. It also gave an Activity (Pseudomonas aeruginosa [31]) of 97.4%, an Activity (Pseudomonas aeruginosa [32]) of 39.7% and an Activity (Pseudomonas aeruginosa [33]) of 92.5%. The Activity (Pseudomonas aeruginosa [34]) was 98.6%, the Activity (Pseudomonas aeruginosa [35]) was 35.6% and the Activity (Pseudomonas aeruginosa [36]) was 99%. It also gave an Activity (Serratia marcescens [37]) of 1.9%.
